Format in all cases: in vivo
Series [1] relates to Diabrotica balteata (Corn Rootworm). In words: Diabrotica balteata seed treatment test, larval mortality. The following applies: treated corn seeds, L3 larvae, 6 days incubation. The procedure:
Diabrotica Balteata (Corn Rootworm)
Treated corn seeds are sown in a 350 ml pot filled with soil. Two weeks after sowing corn seedlings are infested with L3 larvae of Diabrotica balteata. After an incubation period of 6 days survived larvae are counted.

Series [2] deals with Agriotes sp. (Wireworms). Put plainly: Agriotes sp. (wireworms) seed treatment test. The settings on record: treated corn seeds, 1 mg/seed, 14 days incubation. The procedure: Treated corn seeds are sown in a 350 ml pot filled with soil. One week after sowing corn seedlings are infested with wireworms. After an incubation period of 14 days healthy and affected larvae (intoxicated, moribund, dead) are counted.

In series [3] the test system is Agriotes sp. (Wireworms). Put plainly: Agriotes sp. (wireworms) drench soil test with maize seedlings. The settings on record: 14 days after treatment. The procedure:
Plastic beakers are prepared with 100 ml drench soil. Afterwards 12.5 ml compound solution is mixed in each plastic beaker and three maize seedlings are added. At the same day five wireworms are placed into each plastic beaker and these are covered up with a lid. Fourteen days after treatment the number of dead and moribund wireworms are evaluated. Wireworms are assessed as moribund if they were not able to bury into the soil in one hour after having been put onto the soil surface.

For series [4], the system named is Diabrotica balteata (Corn Rootworm). In words: Diabrotica balteata seed treatment, plant damage on maize. The settings on record: L2 larvae, 6 days after infestation. The procedure: (§1) Diabrotica Balteata (Corn Rootworm):
(§2) Plastic boxes (17×27×22 cm) are filled with 8 L of drench soil and 6 maize seeds are sown into a furrow. 10 ml of spray solution are applied with a hand sprayer into the furrow on the planted seeds and the furrow is closed afterwards. Two weeks after sowing each box is infested with 15 Diabrotica balteata L2 larvae. 6 days after infestation the plant damage is assessed. Plants are considered as either damaged or healthy. Dead plants, plants with hollow stems or entry holes are considered as damaged. The test is carried out with five replicates (boxes) per treatment. For in-furrow application the control is replicated five times with the application of water.
For the assessment as seed treatment 6 treated seeds are planted 0.5 cm deep into the soil. Exactly the same setup is used as with the in furrow treatment described above except that no spray solution is applied. For seed treatment the control is replicated five times without seed coating.
(§3) As six seeds are used per replicate, the total amount of active ingredient applied in furrow is six times the rate per seed in the seed treatment test.

Series [5] has the same test system. Put plainly: Diabrotica balteata in-furrow application, plant damage on maize. The following applies: L2 larvae, 6 days after infestation. The procedure: as §1, §2, §3

SMILES strings stand for the structures.

With `Cc1cc(C2=NOC(c3cc(Cl)c(Cl)c(Cl)c3)(C(F)(F)F)C2)ccc1C(=O)NC1CON(CC(F)(F)F)C1=O` (mixture of isomers) [Compound A1], the “% Larval mortality” value in series [1] (0.3 mg/seed) was found to be 87%.
On the same count and under the same terms, as for `Cc1cc(C2=NOC(c3cc(Cl)cc(Cl)c3)(C(F)(F)F)C2)ccc1C(=O)NC1CON(C)C1=O` (mixture of isomers) [Compound A2], the figure is 96%; as for `CCN1OCC(NC(=O)c2ccc(C3=NOC(c4cc(Cl)c(F)c(Cl)c4)(C(F)(F)F)C3)cc2C)C1=O` (mixture of isomers) [Compound A5], 96%.
Still for that read-out and setting: as for `Cc1cc(C2=NOC(c3cc(Cl)cc(Cl)c3)(C(F)(F)F)C2)ccc1C(=O)NC1CON(CC(F)F)C1=O` (mixture of isomers) [Compound A6], the figure is 87%.
On to `Cc1cc(C2=NOC(c3cc(Cl)cc(Cl)c3)(C(F)(F)F)C2)ccc1C(=O)NC1CON(CC(F)(F)F)C1=O` (mixture of isomers) [Compound A8], for which the “% Larval mortality” value in series [1] (0.3 mg/seed) is given as 79%. The “% Mortality and moribund/intoxicated” value in the series on Agriotes sp. (Wireworms) [2] came out at 100%.
Turning to `CCN1OCC(NC(=O)c2ccc(C3=NOC(c4cc(Cl)cc(Cl)c4)(C(F)(F)F)C3)cc2C)C1=O` (mixture of isomers) [Compound A9], the figures for the “% Moribund & dead” value in the series on Agriotes sp. (Wireworms) [3] (application rate 0.8 ppm), in the series with Agriotes sp. (Wireworms) [3] (application rate 3 ppm) and in the series on Agriotes sp. (Wireworms) [3] (application rate 12.5 ppm) were 50%, 75% and 100%, respectively. In addition, the “% Mortality and moribund/intoxicated” value in the series with Agriotes sp. (Wireworms) [2] was determined as 25%.
Turning to `CCN1OCC(NC(=O)c2ccc(C3=NOC(c4cc(C(F)(F)F)c(Cl)c(C(F)(F)F)c4)(C(F)(F)F)C3)cc2C)C1=O` (mixture of isomers) [Compound A15], the “% Larval mortality” value in series [1] (0.3 mg/seed) is on record as 100%.
With `CCN1OCC(NC(=O)c2ccc(C3=NOC(c4cc(F)cc(Cl)c4)(C(F)(F)F)C3)cc2C)C1=O` (mixture of isomers) [Compound A22], in series [1] (1 mg/seed), the “% Larval mortality” value is listed as 92%.
Still for that read-out and setting: under `CCN1OCC(NC(=O)c2ccc(C3=NOC(c4cc(Cl)c(Cl)c(Cl)c4)(C(F)(F)F)C3)cc2C)C1=O` (mixture of isomers) [Compound A23] stands 100%; under `CCN1OCC(NC(=O)c2ccc(C3=NCC(c4cc(Cl)c(Cl)c(Cl)c4)(C(F)(F)F)C3)cc2C)C1=O` (racemic) [Compound C3], 100%.
With `Cc1cc(N2CCC(c3cc(Cl)cc(Cl)c3)(C(F)(F)F)C2)ccc1C(=O)NC1CON(CC(F)(F)F)C1=O` (racemic) [Compound D1], the “% Larval mortality” value in series [1] (0.3 mg/seed) worked out at 83%.
Turning to `Cc1cc(C2=NO[C@@](c3cc(Cl)cc(Cl)c3)(C(F)(F)F)C2)ccc1C(=O)N[C@@H]1CON(CC(F)(F)F)C1=O` [Compound 1], the “Reduction in plant damage compared to control (seed treatment)” value in series [4] (0.1 mg AI per seed) amounted to 25%; in series [4] (0.5 mg AI per seed), 50%. Also, the results for the “Reduction in plant damage compared to control (in-furrow application)” value in series [5] (0.1 mg AI per seed) and in series [5] (0.5 mg AI per seed) were 67% and 95%, respectively.
For `CCN1OC[C@@H](NC(=O)c2ccc(C3=NO[C@@](c4cc(Cl)c(F)c(Cl)c4)(C(F)(F)F)C3)cc2C)C1=O` [Compound 2], the “Reduction in plant damage compared to control (seed treatment)” value in series [4] (0.1 mg AI per seed) was 35%; in series [4] (0.5 mg AI per seed) it was 75%. In addition, the “Reduction in plant damage compared to control (in-furrow application)” value in series [5] (0.1 mg AI per seed) came to 95%; in series [5] (0.5 mg AI per seed), 91%.
As for `CCN1OC[C@@H](NC(=O)c2ccc(C3=NO[C@@](c4cc(Cl)cc(Br)c4)(C(F)(F)F)C3)cc2C)C1=O` [Compound A11], in series [1] (1 mg/seed), the “% Larval mortality” value was 100%.
On to `CCN1OC[C@@H](NC(=O)c2ccc(C3=NO[C@@](c4cc(Cl)cc(C(F)(F)F)c4)(C(F)(F)F)C3)cc2C)C1=O` [Compound A12], for which the “% Larval mortality” value in series [1] (0.3 mg/seed) stood at 88%.
With `Cc1cc(C2=NO[C@@](c3cc(Cl)cc(Cl)c3)(C(F)(F)F)C2)ccc1C(=O)N[C@@H]1CON(CC(F)F)C1=O` [Compound A14], the “% Larval mortality” value in series [1] (1 mg/seed) came out at 100%.
As to `Cc1cc(C2=NO[C@@](c3cc(Cl)cc(Cl)c3)(C(F)(F)F)C2)ccc1C(=O)N[C@@H]1CON(CC(F)(F)F)C1=O` [Compound A16], the “% Moribund & dead” value with Agriotes sp. (Wireworms) [3] (application rate 0.8 ppm), with Agriotes sp. (Wireworms) [3] (application rate 3 ppm) and with Agriotes sp. (Wireworms) [3] (application rate 12.5 ppm) was 100% in each case. Besides, the “% Larval mortality” value in series [1] (1 mg/seed) turned out to be 100%. For the same compound, the “% Mortality and moribund/intoxicated” value with Agriotes sp. (Wireworms) [2] was found to be 100%.
Turning to `CCN1OC[C@@H](NC(=O)c2ccc(C3=NO[C@@](c4cc(Cl)cc(Cl)c4)(C(F)(F)F)C3)cc2C)C1=O` [Compound A17], the “% Moribund & dead” value in the series on Agriotes sp. (Wireworms) [3] (application rate 0.8 ppm), in the series on Agriotes sp. (Wireworms) [3] (application rate 3 ppm) and with Agriotes sp. (Wireworms) [3] (application rate 12.5 ppm) was 100% in each case. For the same compound, in series [1] (1 mg/seed), the “% Larval mortality” value came to 83%. Also, the “% Mortality and moribund/intoxicated” value in the series on Agriotes sp. (Wireworms) [2] worked out at 80%.
With `CCN1OC[C@@H](NC(=O)c2ccc(C3=NO[C@@](c4cc(Cl)c(F)c(Cl)c4)(C(F)(F)F)C3)cc2C)C1=O` [Compound A18], in series [1] (0.3 mg/seed), the “% Larval mortality” value was found to be 96%.
Consider `CCN1OC[C@@H](NC(=O)c2ccc(C3=NO[C@@](c4cc(Cl)c(Cl)c(Cl)c4)(C(F)(F)F)C3)cc2C)C1=O` [Compound A19], for which the “% Larval mortality” value in series [1] (1 mg/seed) is 100%.
Same read-out and setting: under `Cc1cc(C2=NO[C@@](c3cc(Cl)c(F)c(Cl)c3)(C(F)(F)F)C2)ccc1C(=O)N[C@@H]1CON(CC(F)(F)F)C1=O` [Compound A20] stands 100%.
`Cc1cc(C2=NO[C@@](c3cc(Cl)c(Cl)c(Cl)c3)(C(F)(F)F)C2)ccc1C(=O)N[C@@H]1CON(CC(F)(F)F)C1=O` [Compound A21]: the “% Larval mortality” value in series [1] (1 mg/seed) is 100%.
On the same count and under the same terms, under `Cc1cc(C2=NCC(c3cc(Cl)cc(Cl)c3)(C(F)(F)F)C2)ccc1C(=O)NC1CON(CC(F)(F)F)C1=O` (stereo not drawn) [Compound C1] stands 100%; under `CCN1OCC(NC(=O)c2ccc(C3=NCC(c4cc(Cl)cc(Cl)c4)(C(F)(F)F)C3)cc2C)C1=O` (stereo not drawn) [Compound C2], 50%.

For the origin of these results see patent US9661850B2, “Methods of soil pest control” (Syngenta Participations AG, priority 2012, dated 2017).
